Laboratory results from patent publication US11028141B2, “Therapeutic for the prevention and/or treatment of weight gain and/or diabetes” (priority 2016, dated 2021).

How the values were obtained:
NCI H716 cells = type: cell-based, human
Description: Identifying the microbial-derived compound responsible for GLP-1 stimulatory activity—To narrow down the bacterial component responsible for GLP-1 secretion in vitro, and for metabolic disease marker modulation in vivo, size fractionation studies were performed using Amicon centrifuge filtration tubes and exposure of the fractions on NCI H716 cells.
To further identify the component responsible for the activity, bacterial supernatants were analyzed using a Thermo Orbitrap Fusion mass spectrometer equipped with an Easy Nanospray HPLC system.

GLUTag cells = experiment: GLP-1 secretion by GLUTag cells, measured by ELISA; type: cell-based, murine; details: cell-free supernatants or PMA positive control on GLUTag cells
Description: S. epidermidis has GLP-1 stimulatory activity in vitro in NCI H716 and GLUTag cells—In order to identify bacterial strains capable of eliciting GLP-1 secretion, 1500 microbial supernatants were screened using human NCI H716 cells. […] Following 16S rRNA sequencing, all 45 stimulatory strains came back as strains of S. epidermidis. Incubation of cell-free supernatants from two of the stimulatory strains with the highest activity, S. epidermidis JA1 and JA8 on NCI H716 cells stimulated a release of 3155±276 pM and 2518±141 pM GLP-1, respectively (FIG. 6A). GM17 media control and the PMA positive control had GLP-1 levels of 565±188 pM and 1767±120 pM GLP-1, respectively, indicating an approximate 2-fold increase in activity by JA1 over the positive PMA control. It was confirmed that JA1 and JA8 could stimulate GLP-1 secretion in a second model, murine GLUTag cells. S. epidermidis JA1 and JA8 led to the release of 1123±107 pM and 984±40 pM GLP-1, respectively (FIG. 6B). The GM17 media control and the PMA positive control had GLP-1 levels of 327±35 pM and 305±14 pM, respectively, indicating no real stimulation by PMA. […] None of the S. epidermidis bacterial cell-free supernatants had detectable toxicity on NCI H716 (FIG. 6C) and GLUTag (FIG. 6D) cells, as determined by a PrestoBlue resazurin-based analysis which measures aerobic respiration as an indicator of cell viability.

| Compound | release of GLP-1 (NCI H716 cells; cell-free supernatants or PMA positive control on NCI H716 cells) | release of GLP-1 (GLUTag cells) | GLP-1 stimulatory activity (GLP-1) (NCI H716 cells; 20 μM peptide, NCI H716 cells) | GLP-1 stimulatory activity of synthesized peptides (NCI H716 cells; varying concentrations, NCI H716 cells) |
| --- | --- | --- | --- | --- |
| CCCCCCCCCCCCCC(=O)O[C@@H]1[C@@H](C)[C@@]2(O)[C@@H](C=C(CO)C[C@]3(O)C(=O)C(C)=C[C@@H]23)[C@@H]2C(C)(C)[C@]12OC(C)=O [PMA, reference compound] | 1767 ± 120 pM | 305 ± 14 pM |  |  |
| MAADIISTIGDLVKWIIDTVNKFTKK [24_25insT] |  |  | 1283.5 ± 798 pM | activity |
